In patent US20100256357A1, “HETEROCYCLES USEFUL AS INHIBITORS OF CARBONIC ANHYDRASE” (Agouron Pharmaceuticals, Inc., priority 2006, published 2010):
Like-named read-outs stand apart in the source and are kept apart here.

Legend:
human CA-IV = target: T1, human CA-IV (Homo sapiens, UniProt P22748); test: Carbonic Anhydrase-IV (CA-IV) Fluorescence Polarization Assay-IC50 Determination; assay type: binding
T1 construct: made in house; host or cells: Escherichia coli BL21(DE3)
In short: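 Recombinant CA-IV expressed with 800 uM ZnCl2, purified by SP-Sepharose and Sephacryl S-100 in 25 mM Tris-HCl pH 7.0, 100 mM NaCl, concentrated to 7.0 mg/mL. IC50 by fluorescence polarization.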

human CA-II [1] = target: T2, human CA-II (Homo sapiens, UniProt P00918); test: Carbonic Anhydrase-II (CA-II) Fluorescence Polarization Tight Binding Assay-Kd Determination
T2 construct: purchased Sigma-Aldrich C6165
Experimental: Assays were conducted in a final volume of 100 μL in 50 mM Tris/HCl (pH 7.6), 100 mM Na2SO4 and 0.005% Tween-20 in a 96-well black assay plate. […] The assay plate was
The Kd binding was calculated using GraphPad Prism and Morrison tight binding ligand equation.

CAI = CAI (Homo sapiens, UniProt P00915); test: CAI IC50 (no method described); assay type: biochemical
human CA-IX = target: T3, human CA-IX (Homo sapiens, UniProt Q16790); test: Carbonic Anhydrase-IX (CA-IX) Fluorescence Polarization Assay-IC50 Determination; assay type: binding; details: read-out: CAIX IC50
T3 construct: purchased R&D Systems Inc. 2188-CA-010
Experimental: Carbonic Anhydrase-IX (CA-IX) Fluorescence Polarization Assay-IC50 Determination
Compounds were diluted in DMSO at the concentration of 1 mM, then 50 μM and transferred to a 96-well plate for further dilutions (1:3 dilution, 11 points) in duplicate. Final compound highest concentration in CA-IX FP assay is 1 μM. Assays were conducted in a final volume of 100 μL in 50 mM Tris/HCl (pH 7.6), 100 mM Na2SO4 and 0.005% Tween-20 in a 96-well black assay. plate. […] was used as the tracer. Binding inhibition was determined by pipetting 8 μL of human CA-IX (8 nM, R&D Systems Inc. Cat#2188-CA-010) into assay plate contained 2 μL of compound and 2 μL of tracer (2 nM) in 88 μL of assay buffer. The assay plate was incubated at room temperature for 30 minutes and read in the fluorescence polarization reader (Molecular Devices, Analyst) at 524/45 nm (excitation), 595/60 nm (emission) and 561 nm (bean splitter). […] GraphPad Prism or similar in-house software with the IC50 curve fitting using the four parameter logistic equation.

human CA-II [2] = target: T2, human CA-II; test: Carbonic Anhydrase-II (CA-II) Fluorimetric Assay-IC50 Determination; assay type: biochemical
In short: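 Compounds were tested as an 11-point, 1:3 dilution series in duplicate, with a top final concentration of 1 μM, in 50 mM Tris/HCl pH 7.6, 100 mM Na2SO4 and 0.005% Tween-20. Human CA-II activity was followed as the rate of fluorescein diacetate hydrolysis at 25° C, with excitation at 488 nm and emission at 538 nm.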

Sequence of CAI (P00915 whole entry, species assumed): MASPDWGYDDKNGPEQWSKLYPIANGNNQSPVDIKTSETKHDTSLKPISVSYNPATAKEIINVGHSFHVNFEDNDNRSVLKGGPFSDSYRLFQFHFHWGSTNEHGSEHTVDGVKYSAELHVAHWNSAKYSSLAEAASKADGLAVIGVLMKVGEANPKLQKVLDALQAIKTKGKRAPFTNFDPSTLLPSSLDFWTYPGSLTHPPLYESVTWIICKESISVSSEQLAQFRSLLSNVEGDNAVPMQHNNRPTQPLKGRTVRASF
T1 sequence (P22748 19-284 limits assumed): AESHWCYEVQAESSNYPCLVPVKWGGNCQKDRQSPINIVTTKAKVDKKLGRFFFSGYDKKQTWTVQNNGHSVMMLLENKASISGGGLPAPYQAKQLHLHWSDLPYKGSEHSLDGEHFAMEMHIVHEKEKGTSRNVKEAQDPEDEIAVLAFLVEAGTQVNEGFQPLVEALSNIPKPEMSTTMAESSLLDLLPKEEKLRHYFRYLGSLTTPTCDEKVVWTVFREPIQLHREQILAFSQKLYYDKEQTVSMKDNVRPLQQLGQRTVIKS

| SMILES | IC50 (human CA-IV; read-out: IC50_CAIV) [nM] | Kd (human CA-II [1]; read-out: Kd_CAII) [nM] | IC50 (CAI) [nM] | IC50 (human CA-IX) [nM] | further results |
| --- | --- | --- | --- | --- | --- |
| CN(CCN1CCOCC1)C(=O)c1nc(Cc2ccccc2)n(-c2ccc(S(N)(=O)=O)cc2F)n1 [Example A-1k, 1-[4-(aminosulfonyl)-2-fluorophenyl]-5-benzyl-N-methyl-N-(2-morpholin-4-ylethyl)-1H-1,2,4-triazole-3-carboxamide] | 148 | 0.22 | 23 | – | – |
| CN(C)[C@H]1CCN(C(=O)c2nc(Cc3ccccc3)n(-c3ccc(S(N)(=O)=O)cc3F)n2)C1 [Example A-1m, 4-(5-benzyl-3-{[(3S)-3-(dimethylamino)pyrrolidin-1-yl]carbonyl}-1H-1,2,4-triazol-1-yl)-3-fluorobenzenesulfonamide] | 429 | 0.2 | 21 | – | – |
| NS(=O)(=O)c1ccc(-n2ncnc2Cc2ccccc2)cc1 [Example L-1a, 4-(5-benzyl-1H-1,2,4-triazol-1-yl)benzenesulfonamide] | – | – | – | 35.6 | – |
| CC(C)OC(=O)c1nc(Cc2ccccc2)n(-c2ccc(S(N)(=O)=O)cc2)n1 [Example P-1, Isopropyl 1-[4-(aminosulfonyl)phenyl]-5-benzyl-1H-1,2,4-triazole-3-carboxylate] | 486 | 0.15 | 41 | – | – |
| Cc1cccc(Cc2nc(C)nn2-c2ccc(S(N)(=O)=O)c(F)c2F)c1 [Example Q-1, 2,3-Difluoro-4-[3-methyl-5-(3-methylbenzyl)-1H-1,2,4-triazol-1-yl]benzenesulfonamide] | – | – | 4610 | – | % printed in column IC50_CAIV (human CA-IV; @ 5 uM): 51% @ 5 uM; % printed in column IC50—CAII (human CA-II [2]; 69 0.010 nM (so in the source)): 0% 69 0.010 nM |
| COC[C@H](C)NC(=O)c1nc(Cc2ccccc2)n(-c2ccc(S(N)(=O)=O)cc2)n1 [Example R-21, 1-[4-(aminosulfonyl)phenyl]-5-benzyl-N-[(1S)-2-methoxy-1-methylethyl]-1H-124-triazole-3-carboxamide] | – | – | – | 53.3 | inhibition at 0.2 µM (human CA-IV; CA-IV Min dose 200 nM, read-out: CA-IV: % Inh @ Min dose): 53.6%; IC50 (human CA-IV; read-out: CA-IV IC50): 356 nM; inhibition at 0.1 µM (human CA-II [2]; CA II Min dose 100 nM, read-out: CAII % Inh @ Min dose): 100%; Kd (human CA-II [1]; read-out: CA-II Kd): 0.09 nM |
| CN(Cc1cc(Cc2ccc(Cl)cc2)n(-c2ccc(S(N)(=O)=O)cc2)n1)C1CCCCC1 [QQ-10] | – | – | – | 5.18 | – |
| Cc1nc(Cc2cccc(F)c2)n(-c2ccc(S(N)(=O)=O)cc2)n1 [f-3a, 4-[5-(3-fluorobenzyl)-3-methyl-1H-1,2,4-triazol-1-yl]benzenesulfonamide] | – | – | – | 36.9 | – |
| COCc1nc(Cc2cccc(Br)c2)n(-c2ccc(S(N)(=O)=O)cc2)n1 [f-3g, 4-[5-(3-bromobenzyl)-3-(methoxymethyl)-1H-1,2,4-triazol-1-yl]benzenesulfonamide] | – | – | – | 8.11 | – |
| NS(=O)(=O)c1ccc(-n2nc(CO)cc2Cc2ccc(Cl)cc2)cc1 [qq-3a, 4-[5-(4-chlorobenzyl)-3-(hydroxymethyl)-1H-pyrazol-1-yl]benzenesulfonamide] | 284 | – | – | 13.5 | – |
